# Test results reported in publication PMC7915867, “Discovery of a Small Molecule Inhibitor of Human Adenovirus Capable of Preventing Escape from the Endosome” (International Journal of Molecular Sciences, 2021).
# Where “and” joins values, the source holds several entries; their conditions need not be identical. Equal values may be shown once.
# Columns and labels:
# HAdV5-GFP [1] = assay: Time of addition assay; format: cell-based, human adenovirus; details: 10-fold IC50; 293β5 cells, HAdV5-GFP 2000 vp/cell
# HAdV5-GFP [2] = assay: microbe, parasite or virus in culture; format: cell-based, human adenovirus
# Description: Compounds were measured at concentrations of 10 μM and in a dose−response assay ranging from 10 to 0.3 μM using low MOI infections (0.06 vp/cell) in a plaque assay. […] Cells were infected with HAdV5-GFP (0.06 vp/cell) and rocked for 2 h at 37 °C, when cells reached 80%–90% confluency. When the incubation was finished, the inoculum was removed followed by washing the cells once with PBS. […] The compounds were also added to the mixture in concentrations ranging from 10 to 0.3 μM. After incubation for 7 days at 37 °C, we scanned plates with a Typhoon FLA 9000 imager (GE Healthcare Life Sciences, MA, USA) and quantified plaques with ImageJ [47].
# wild-type HAdV5 [3] = assay: Virus yield reduction (virus burst assay); format: cell-based, human adenovirus
# Description: After 48 h, cells were harvested and subjected to three rounds of freeze/thaw. Serial dilutions of clarified lysates were titrated on A549 cells (3 × 10^4 cells/well), and we calculated TCID50 values using an endpoint dilution method.
# HAdV-5 DNA replication = assay: HAdV DNA quantification by real-time PCR (DNA replication); format: cell-based, human adenovirus; details: Human adenovirus sp., A549, 24 h; read-out: Inhibition of HAdV-5 DNA replication (qPCR)
# Description: All samples were carried out in duplicate. After incubation for 24 h at 37 °C, DNA was purified from the cell lysate with the E.Z.N.A.® Tissue DNA Kit (Omega Bio-tek, Norcross, GA, USA) following the manufacturer’s instructions. TaqMan primers and probes for a common region of the HAdV5 hexon were designed with the GenScript Real-Time PCR (TaqMan) Primer Design software (GenScript, Leiden, Netherlands). Oligonucleotides sequences were: AQ1: 5′-GCCACGGTGGGGTTTCTAAACTT-3′; AQ2: 5′-GCCCCAGTGGTCTTACATGCACAT-3′; Probe: 6-FAM-5′-TGCACCAGACCCGGGCTCAGGTACTCCGA-3′-TAMRA. Real-time PCR mixtures contained 9.5 μL of the purified DNA, AQ1 and AQ2 at a concentration of 200 nM each and Probe at a concentration of 50 nM in a total volume of 25 μL. The PCR cycling protocol was 95 °C for 3 min followed by 40 cycles of 95 °C for 10 s and 60 °C for 30 s. Human glyceraldehyde-3-phosphate dehydrogenase (GAPDH) gene was applied as internal control. Oligonucleotides sequences for GAPDH and conditions were previously reported by Rivera et al..
# For quantification, gene fragments from hexon and GAPDH were cloned into the pGEM-T Easy vector (Promega, MA, USA), and known concentrations of template were used to produce a standard curve in parallel for each experiment. All assays were done in thermal cycler LightCycler® 96 System (Roche, Basel, Switzerland).
# HAdV5 = assay: HAdV-mediated endosome disruption (α-sarcin co-delivery assay); format: cell-based, human adenovirus; details: A549 cells, 10-fold IC50, virus below 12 ng
# Description: A549 cells (~20,000 cells/well) were incubated in DMEM without cysteine or methionine supplemented with 10% dialyzed FBS [DMEM (−)] in black 96-well plates for 1 h before infection. […] The medium was then removed and replaced with 50 μL DMEM (−) containing 0.1 mg/mL α-sarcin (Santa Cruz Biotechnology, Dallas, TX, USA) and the virus and drug mixtures. After 2 h at 37 °C, the Click-iT HPG Alexa Fluor 488 Protein Synthesis Assay Kits (Invitrogen, MA, USA) were used to analyze protein synthesis according to the manufacturer’s instructions. The incorporation of the amino acid analog of methionine L-homopropargylglycine (HPG) containing Alexa Fluor 488 azide was measured using a Typhoon 9410 imager (GE Healthcare Life Sciences, MA, USA) and calculated subtracting the background level of the control well containing L-homopropargylglycine (HPG) and α-sarcin but not virus (100% incorporation).
# [4] = tested on: human cytomegalovirus (HCMV); assay: HCMV DNA replication assay; format: cell-based; details: HFF cells, 72 h postinfection, 10-fold IC50 of HAdV plaque assay
# Description: The broad antiviral activity of compound 16 was tested using human cytomegalovirus (HCMV) in a DNA replication assay. To avoid the influence of newly generated viral particles from subsequent rounds of infection, HCMV DNA was extracted from HFF cells at 72 h postinfection and quantified in a single round of infection as a measurement of the DNA replication efficiency.
# wild-type HAdV5 [5] = assay: Nuclear-associated HAdV genomes; format: cell-based, human adenovirus; details: 45 min postinfection, A549 cells, 2000 vp/cell, 10-fold IC50
# Description: The nuclear delivery of HAdV genomes was evaluated by real-time PCR following nuclear isolation from infected cells. […] Forty-five minutes after infection, A549 cells were trypsinized, collected, and then washed twice with PBS. After that, we separated cytoplasmic and nuclear fractions using a hypotonic buffer solution and NP-40 detergent and resuspended the cell pellet in 500 μL of 1 × hypotonic buffer (20 mM Tris-HCl pH 7.4, 10 mM NaCl, 3 mM MgCl2). After incubation for 15 min at 4 °C, 25 μL of NP-40 was added and the samples were vortexed. The homogenates were centrifuged for 10 min at 835g and 4 °C. After the removal of the cytoplasmic fraction (supernatant), HAdV DNA was separated from the nuclear fraction (pellet) and from the cytoplasmic fraction using the E.Z.N.A.® Tissue DNA Kit (Omega Bio-tek, Norcross, GA, USA).
# HAdV-GFP = assay: Thermostability assay (capsid stabilization); format: cell-based, human adenovirus; details: 50 μM, A549 cells
# Description: HAdV-GFP (37.5 ng) was incubated with compound 16 (50 µM) or the same volume of DMSO for 1 h in complete DMEM. Parallel samples were incubated for 10 min at the indicated temperatures, cooled to r.t., and added to A549 cells on ice to synchronize the infection. After the incubation, cells were washed twice with PBS 1x to remove the nonattached virus and the excess of compound 16 and DMSO. Cells were then incubated for 24 h at 37 °C and 5% CO2 before being visualized for GFP expression in an Olympus inverted microscope Model IX71 (Hamburg, Germany) and analyzed by capturing representative images of each condition using the CellSens Dimension platform (Olympus, Hamburg, Germany).
# [6] = Cytotoxicity assay (AlamarBlue); format: cell-based; details: human, A549 cells, A549 cell line
# Description: The cytotoxicity of these derivatives was tested by commercial kit AlamarBlue® (Ref. DAL1025, Invitrogen, MA, USA). […] The cytotoxic concentration 50 (CC50) value was obtained by using the statistical package GraphPad Prism. This assay was performed in duplicate.
compound,measurement,setting,value
"O=C(NCC1CCCCC1)c1cc(Cl)ccc1O [Compound 16, 5-Chloro-N-(cyclohexylmethyl)-2-hydroxybenzamide]","Inhibition of HAdV infection, compound added at 0 min p.i.",HAdV5-GFP [1],95.3%
same,"Inhibition of HAdV infection, compound added at 20 min p.i.",HAdV5-GFP [1],30.7%
same,Plaque Assay IC50,"HAdV5-GFP [2]; HAdV5-GFP, low MOI, 293β5 cell line",submicromolar
same,inhibition at 10 µM,"HAdV5-GFP [2]; Human adenovirus sp., read-out: Plaque Assay (10 μM) (%) Inhibition",100%
same,IC50,"HAdV5-GFP [2]; Human adenovirus sp., read-out: Plaque Assay IC50",0.78 ± 0.01 µM
same,Selectivity Index (SI),HAdV5-GFP [2]; ratio of CC50 to IC50 in plaque assay,116.9
same,Virus yield reduction compared to niclosamide,wild-type HAdV5 [3]; 16 at 10-fold IC50 versus niclosamide 5 μM,2.5 fold
same,Virus Yield Reduction,"wild-type HAdV5 [3]; A549 cells, HAdV 100 vp/cell, 48 h, niclosamide 5 μM, 16 at 10-fold IC50, versus DMSO",208 fold and 208 ± 108 fold
same,inhibition at 7.8 µM,HAdV-5 DNA replication,50%
same,HAdV-mediated endosome lysis,HAdV5,prevented HAdV-mediated endosome lysis
same,Decrease of total HCMV DNA compared to DMSO control,[4],95%
same,Inhibition of HAdV DNA accessibility to the nucleus,wild-type HAdV5 [5],more than 99%
same,"GFP expression 24 h postinfection, virus heated to 48 °C",HAdV-GFP,significant levels of GFP expression
same,"GFP expression 24 h postinfection, virus heated to 52 °C",HAdV-GFP,some residual expression
same,CC50 at 48 h,[6],91.2 ± 18.4 µM
